For 16 molecules, MIC results are on record in ChEMBL document CHEMBL1133840, “Enols as potent antibacterial agents” (2001).

What all share (format): functional
In assay [1] the test system is Staphylococcus epidermidis. Description: Evaluated for its antibacterial activity against Staphylococcus epidermidis UC 12084.
Another assay deals with Klebsiella pneumoniae. As to the kind of experiment: Evaluated for its antibacterial activity against Klebsiella pneumoniae UC 12081.
Another assay deals with Streptococcus pneumoniae. Description: Evaluated for its antibacterial activity against Streptococcus pneumoniae UC 9912.
The test system of assay [2] is Staphylococcus aureus. As to the kind of experiment: Evaluated for its antibacterial activity against Staphylococcus aureus UC 9218.
A further assay relates to Escherichia coli. As to the kind of experiment: Evaluated for its antibacterial activity against Escherichia coli UC 6674.
A further assay deals with Haemophilus influenzae. Description: Evaluated for its antibacterial activity against Haemophilus influenzae 30063.
A further assay concerns Pseudomonas aeruginosa. Description: Evaluated for its antibacterial activity against Pseudomonas aeruginosa UC 6676.
In the next assay the test system is Enterococcus faecalis. Description: Evaluated for its antibacterial activity against Enterococcus faecalis UC 9217.
Assay [3] concerns Staphylococcus aureus. As to the kind of experiment: Antibacterial activity against Staphylococcus aureus UC 9218 in the presence of 0% serum.
Assay [4] has as its system Staphylococcus aureus. Description: Antibacterial activity against Staphylococcus aureus UC 9218 in the presence of 5% serum.
The test system of assay [5] is Staphylococcus aureus. As to the kind of experiment: Antibacterial activity against Staphylococcus aureus UC 9218 in the presence of 10% serum.

Molecules are shown by their SMILES. Converted amounts (≈) assume the structure as drawn.

As to `CC(=O)CC(=O)N(CCc1cccc(C(F)(F)F)c1)c1cccc2ccccc12`, the MIC in assay [1] is > 128 µg/mL; against Klebsiella pneumoniae it was > 128 µg/mL; in the assay on Streptococcus pneumoniae it was 32 µg/mL (≈ 80.1 µM); with Staphylococcus aureus [2], > 128 µg/mL; against Escherichia coli, > 128 µg/mL; with Haemophilus influenzae, > 128 µg/mL. The MIC against Pseudomonas aeruginosa and against Enterococcus faecalis was > 128 µg/mL in each case.
As to `FC(F)(F)c1cccc(CNc2cccc3ccccc23)c1`, the MIC in [1] was 4 µg/mL (≈ 13.3 µM); against Klebsiella pneumoniae, > 128 µg/mL; in the assay on Streptococcus pneumoniae, 8 µg/mL (≈ 26.6 µM); in the assay with Staphylococcus aureus [2] it was 2 µg/mL (≈ 6.64 µM); in the assay on Escherichia coli it was > 128 µg/mL; in the assay with Haemophilus influenzae, 32 µg/mL (≈ 106 µM). Further, the MIC was > 128 µg/mL against Pseudomonas aeruginosa, 2 µg/mL in the assay with Staphylococcus aureus [3] and 2 µg/mL (≈ 6.64 µM) with Enterococcus faecalis.
As to `CSCC(=O)N(CCc1cccc(C(F)(F)F)c1)c1cccc2ccccc12`, the MIC (in assay [1]; in the assay with Klebsiella pneumoniae; against Streptococcus pneumoniae; with Staphylococcus aureus [2]; against Escherichia coli; with Haemophilus influenzae) was > 128 µg/mL in each case. The MIC with Pseudomonas aeruginosa and in the assay on Enterococcus faecalis was > 128 µg/mL throughout.
On to `CCc1cccc2ccccc12`, for which the MIC in [1] was 128 µg/mL (≈ 819 µM); in the assay with Staphylococcus aureus [4], > 128 µg/mL; against Klebsiella pneumoniae it was > 128 µg/mL; against Streptococcus pneumoniae it was 32 µg/mL (≈ 205 µM); against Staphylococcus aureus [2], 128 µg/mL (≈ 819 µM); with Escherichia coli it was > 128 µg/mL. Also, the MIC with Haemophilus influenzae was > 128 µg/mL; against Pseudomonas aeruginosa, > 128 µg/mL; in the assay on Staphylococcus aureus [3] it was 128 µg/mL; against Enterococcus faecalis it was 128 µg/mL (≈ 819 µM); in the assay on Staphylococcus aureus [5], > 128 µg/mL.
Turning to `Clc1ccc(CCNc2cccc3ccccc23)c(Cl)c1`, the MIC in assay [1] is 1 µg/mL (≈ 3.16 µM); in the assay with Staphylococcus aureus [4] it was 16 µg/mL; in the assay with Klebsiella pneumoniae, > 128 µg/mL; in the assay with Streptococcus pneumoniae it was 2 µg/mL (≈ 6.32 µM); with Staphylococcus aureus [2] it was 2 µg/mL (≈ 6.32 µM); against Escherichia coli, > 128 µg/mL. Further, the MIC is 1 µg/mL (≈ 3.16 µM) in the assay on Haemophilus influenzae; > 128 µg/mL in the assay on Pseudomonas aeruginosa; 2 µg/mL in the assay with Staphylococcus aureus [3]; 1 µg/mL (≈ 3.16 µM) in the assay with Enterococcus faecalis; 64 µg/mL with Staphylococcus aureus [5].
On to `COc1ccc(OC)c(CCNc2cccc3ccccc23)c1`, for which the MIC in assay [1] was 16 µg/mL (≈ 52.1 µM); in the assay on Staphylococcus aureus [4], 32 µg/mL; in the assay with Klebsiella pneumoniae, > 128 µg/mL; in the assay on Streptococcus pneumoniae, 16 µg/mL (≈ 52.1 µM); against Staphylococcus aureus [2], 16 µg/mL (≈ 52.1 µM); in the assay with Escherichia coli it was > 128 µg/mL. Further, the MIC against Haemophilus influenzae is 32 µg/mL (≈ 104 µM); against Pseudomonas aeruginosa, > 128 µg/mL; with Staphylococcus aureus [3], 16 µg/mL; against Enterococcus faecalis, 16 µg/mL (≈ 52.1 µM); with Staphylococcus aureus [5], 128 µg/mL.
Take `c1ccc(-c2ccc(CCNc3cccc4ccccc34)cc2)cc1`: the MIC in [1] was 8 µg/mL (≈ 24.7 µM); with Staphylococcus aureus [4], 64 µg/mL; against Klebsiella pneumoniae, > 128 µg/mL; in the assay on Streptococcus pneumoniae, 16 µg/mL (≈ 49.5 µM); against Staphylococcus aureus [2], 8 µg/mL (≈ 24.7 µM); against Escherichia coli it was > 128 µg/mL. For the same molecule, the MIC in the assay on Haemophilus influenzae was 64 µg/mL (≈ 198 µM); with Pseudomonas aeruginosa it was > 128 µg/mL; in the assay with Staphylococcus aureus [3], 8 µg/mL; with Enterococcus faecalis, 2 µg/mL (≈ 6.18 µM); with Staphylococcus aureus [5] it was 128 µg/mL.
For the molecule `CN[C@H](CC(C)C)C(=O)N[C@H]1C(=O)N[C@@H](CC(N)=O)C(=O)N[C@H]2C(=O)N[C@H]3C(=O)N[C@H](C(=O)N[C@H](C(=O)O)c4cc(O)cc(O)c4-c4cc3ccc4O)[C@H](O)c3ccc(c(Cl)c3)Oc3cc2cc(c3O[C@@H]2O[C@H](CO)[C@@H](O)[C@H](O)[C@H]2O[C@H]2C[C@](C)(N)[C@H](O)[C@H](C)O2)Oc2ccc(cc2Cl)[C@H]1O` [VANCOMYCIN], the values for the MIC against Streptococcus pneumoniae and in the assay with Enterococcus faecalis were 0.25 µg/mL (≈ 0.173 µM) and 1 µg/mL (≈ 0.69 µM), respectively.
Take `N#CCC(=O)N(CCc1cccc(C(F)(F)F)c1)c1cccc2ccccc12`: the MIC in [1] was > 128 µg/mL; against Klebsiella pneumoniae, > 128 µg/mL; in the assay on Streptococcus pneumoniae, 16 µg/mL (≈ 41.8 µM); against Staphylococcus aureus [2], > 128 µg/mL; in the assay on Escherichia coli it was > 128 µg/mL; in the assay with Haemophilus influenzae, > 128 µg/mL. Besides, the MIC with Pseudomonas aeruginosa and in the assay on Enterococcus faecalis was > 128 µg/mL in each case.
In the case of `Cc1ccccc1NCCc1cccc(C(F)(F)F)c1`, the MIC is 2 µg/mL (≈ 7.16 µM) in assay [1]; 16 µg/mL in the assay on Staphylococcus aureus [4]; > 128 µg/mL in the assay with Klebsiella pneumoniae; 1 µg/mL (≈ 3.58 µM) in the assay with Streptococcus pneumoniae; 4 µg/mL (≈ 14.3 µM) in the assay on Staphylococcus aureus [2]; > 128 µg/mL in the assay with Escherichia coli. For the same molecule, the MIC against Haemophilus influenzae was 4 µg/mL (≈ 14.3 µM); in the assay on Pseudomonas aeruginosa, > 128 µg/mL; in the assay on Staphylococcus aureus [3], 4 µg/mL; against Enterococcus faecalis it was 2 µg/mL (≈ 7.16 µM); in the assay with Staphylococcus aureus [5], 32 µg/mL.
`O=C(CC(=O)C(F)(F)F)N(CCc1cccc(C(F)(F)F)c1)c1cccc2ccccc12`: the MIC in assay [1] is 2 µg/mL (≈ 4.41 µM); in the assay on Staphylococcus aureus [4], 16 µg/mL; in the assay with Klebsiella pneumoniae, > 128 µg/mL; in the assay on Streptococcus pneumoniae it was 8 µg/mL (≈ 17.6 µM); against Staphylococcus aureus [2], 2 µg/mL (≈ 4.41 µM); against Escherichia coli, > 128 µg/mL. Besides, the MIC in the assay with Haemophilus influenzae is 8 µg/mL (≈ 17.6 µM); in the assay on Pseudomonas aeruginosa it was > 128 µg/mL; in the assay with Staphylococcus aureus [3], 2 µg/mL; with Enterococcus faecalis it was 4 µg/mL (≈ 8.82 µM); in the assay on Staphylococcus aureus [5], 64 µg/mL.
For the molecule `CO/N=C(\C(=O)N[C@@H]1C(=O)N2C(C(=O)O)=C(COC(C)=O)CS[C@H]12)c1csc(N)n1` [CEFOTAXIME], the MIC was 0.06 µg/mL (≈ 0.132 µM) in the assay with Klebsiella pneumoniae, 0.06 µg/mL (≈ 0.132 µM) against Escherichia coli, 0.015 µg/mL (≈ 0.0329 µM) in the assay on Haemophilus influenzae and 16 µg/mL (≈ 35.1 µM) against Pseudomonas aeruginosa.
On to `C[S+]([O-])CC(=O)N(CCc1cccc(C(F)(F)F)c1)c1cccc2ccccc12` (stereo not drawn), for which the MIC in [1] was 128 µg/mL (≈ 305 µM); in the assay on Klebsiella pneumoniae it was > 128 µg/mL; against Streptococcus pneumoniae, 64 µg/mL (≈ 153 µM); in the assay with Staphylococcus aureus [2], 128 µg/mL (≈ 305 µM); against Escherichia coli it was > 128 µg/mL; against Haemophilus influenzae, > 128 µg/mL. Also, the MIC against Pseudomonas aeruginosa and in the assay with Enterococcus faecalis was > 128 µg/mL each time.
Turning to `FC(F)(F)c1cccc(CCNc2ccc3ccccc3c2)c1`, the MIC is 2 µg/mL (≈ 6.34 µM) in assay [1]; 32 µg/mL in the assay on Staphylococcus aureus [4]; > 128 µg/mL with Klebsiella pneumoniae; 2 µg/mL (≈ 6.34 µM) in the assay on Streptococcus pneumoniae; 4 µg/mL (≈ 12.7 µM) with Staphylococcus aureus [2]; > 128 µg/mL in the assay with Escherichia coli. The MIC is 4 µg/mL (≈ 12.7 µM) in the assay on Haemophilus influenzae; > 128 µg/mL in the assay with Pseudomonas aeruginosa; 4 µg/mL with Staphylococcus aureus [3]; > 1 µg/mL against Enterococcus faecalis; 64 µg/mL in the assay with Staphylococcus aureus [5].
Consider `O=C(CO)N(CCc1cccc(C(F)(F)F)c1)c1cccc2ccccc12`, for which the MIC is > 128 µg/mL in assay [1]; > 128 µg/mL against Klebsiella pneumoniae; 32 µg/mL (≈ 85.7 µM) in the assay on Streptococcus pneumoniae; 32 µg/mL (≈ 85.7 µM) with Staphylococcus aureus [2]; > 128 µg/mL against Escherichia coli; > 128 µg/mL with Haemophilus influenzae. Further, the MIC in the assay on Pseudomonas aeruginosa and in the assay on Enterococcus faecalis was > 128 µg/mL each time.
For the molecule `CC(=O)C(C#N)C(=O)N(CCc1cccc(C(F)(F)F)c1)c1cccc2ccccc12` (stereo not drawn), the MIC in assay [1] was 4 µg/mL (≈ 9.42 µM); in the assay on Staphylococcus aureus [4], 128 µg/mL; in the assay on Klebsiella pneumoniae, > 128 µg/mL; with Streptococcus pneumoniae, 2 µg/mL (≈ 4.71 µM); in the assay with Staphylococcus aureus [2], 8 µg/mL (≈ 18.8 µM); against Escherichia coli it was > 128 µg/mL. In addition, the MIC is > 128 µg/mL with Haemophilus influenzae; > 128 µg/mL against Pseudomonas aeruginosa; 8 µg/mL in the assay with Staphylococcus aureus [3]; 4 µg/mL (≈ 9.42 µM) against Enterococcus faecalis; 128 µg/mL with Staphylococcus aureus [5].
